Patent US5756450A, “Water soluble monoesters as solubilisers for pharmacologically active compounds and pharmaceutical excipients and novel cyclosporin galenic forms” (Novartis Corporation, priority 1987, dated 1998)

Tests used:
[1] = Solubilisation in aqueous 10% saccharose monolaurate L-1695 solution (Example 12); assay type: physicochemical; details: aqueous solution of saccharose monolaurate L-1695, 10% by weight
From the text: A solid solution is obtained by removing the water by freeze drying.

[2] = Water solubility of the active compound; assay type: physicochemical

SMILES	amount that can be solubilised per ml [1]	water solubility [2]
CC(=O)[C@H]1CC[C@H]2[C@@H]3CCC4=CC(=O)CC[C@]4(C)[C@H]3CC[C@]12C [Progesterone]	3 mg per ml	–
Cc1ccc2c(-c3ccccc3)nc(=O)n(C(C)C)c2c1 [Proquazone, 1-isopropyl-7-methyl-4-phenyl-2(1H)-quinazolinone]	3 mg per ml	below 0.1 g/100 ml
